Measurements taken from ChEMBL document CHEMBL5512654, “Discovery of novel Thymol-TPP antibiotics that eradicate MRSA persisters” (Eur J Med Chem, 2024).
Values after ≈ are worked out from the molar mass of the structure shown. Each block holds one molecule with its values, some of them ahead of it. Active and inactive are the calls of the source. No cut-off for these calls is given here.

Experiments:
Staphylococcus aureus [1] = experiment: Antibacterial activity against Staphylococcus aureus ATCC 43300 assessed as inhibition of bacterial growth measured after 18 hrs by microplate reader; type: functional; details: read-out: MIC100
Staphylococcus aureus [2] = experiment: Antibacterial activity against methicillin-resistant Staphylococcus aureus USA 300 assessed as inhibition of bacterial growth measured after 18 hrs by microplate reader; type: functional; details: read-out: MIC100
Staphylococcus aureus [3] = experiment: Antibacterial activity against methicillin-resistant Staphylococcus aureus USA 3390 assessed as inhibition of bacterial growth measured after 18 hrs by microplate reader; type: functional; details: read-out: MIC100
[4] = Cytotoxicity against human L02 cells incubated for 72 hrs by MTT dye reduction assay; type: toxicity, cell-based
Escherichia coli [5] = experiment: Antibacterial activity against Escherichia coli ATCC 25922 assessed as inhibition of bacterial growth measured after 18 hrs by microplate reader; type: functional; details: read-out: MIC100
Escherichia coli [6] = experiment: Antibacterial activity against Escherichia coli 53328 assessed as inhibition of bacterial growth measured after 18 hrs by microplate reader; type: functional; details: read-out: MIC100
Pseudomonas aeruginosa [7] = experiment: Antibacterial activity against Pseudomonas aeruginosa ATCC 27853 assessed as inhibition of bacterial growth measured after 18 hrs by microplate reader; type: functional
Pseudomonas aeruginosa [8] = experiment: Antibacterial activity against Pseudomonas aeruginosa 535 assessed as inhibition of bacterial growth measured after 18 hrs by microplate reader; type: functional
Klebsiella pneumoniae [9] = experiment: Antibacterial activity against Klebsiella pneumonia ATCC 700603 assessed as inhibition of bacterial growth measured after 18 hrs by microplate reader; type: functional
Klebsiella pneumoniae [10] = experiment: Antibacterial activity against Klebsiella pneumonia 3026 assessed as inhibition of bacterial growth measured after 18 hrs by microplate reader; type: functional
Acinetobacter baumannii [11] = experiment: Antibacterial activity against Acinetobacter baumannii ATCC 19606 assessed as inhibition of bacterial growth measured after 18 hrs by microplate reader; type: functional
Acinetobacter baumannii [12] = experiment: Antibacterial activity against Acinetobacter baumannii ATCC 1318 assessed as inhibition of bacterial growth measured after 18 hrs by microplate reader; type: functional
Staphylococcus aureus [13] = experiment: Bactericidal activity against methicillin-resistant Staphylococcus aureus USA 3390 assessed as reduction in CFU at 1 times of MIC concentration measured for short time by time-kill kinetics assay; type: functional, organism-based
Staphylococcus aureus [14] = experiment: Bactericidal activity against methicillin-resistant Staphylococcus aureus USA 3390 assessed as reduction in CFU at 4 to 8 times of MIC concentration measured after 24 hrs by time-kill kinetics assay; type: functional, organism-based
Staphylococcus aureus [15] = experiment: Antibacterial activity against methicillin-resistant Staphylococcus aureus USA 3390 assessed as resistance development measured after 30 generations; type: functional, organism-based

SMILES: Cc1ccc(-c2cc(C(C)C)c(O)cc2C)cc1
MIC (Staphylococcus aureus [1]): 8 µg/mL (≈ 33.3 µM) | MIC (Staphylococcus aureus [2]): 16 µg/mL (≈ 66.6 µM) | MIC (Staphylococcus aureus [3]): 8 µg/mL (≈ 33.3 µM)

SMILES: Cc1cc(O)c(C(C)C)cc1-c1ccc(F)cc1
MIC (Staphylococcus aureus [1]): 16 µg/mL (≈ 65.5 µM) | MIC (Staphylococcus aureus [2]): 16 µg/mL (≈ 65.5 µM) | MIC (Staphylococcus aureus [3]): 16 µg/mL (≈ 65.5 µM)

SMILES: Cc1ccc(C(C)C)c(O)c1 [THYMOL]
MIC (Staphylococcus aureus [1]): 128 µg/mL (≈ 852 µM) | MIC (Staphylococcus aureus [2]): 128 µg/mL (≈ 852 µM) | MIC (Staphylococcus aureus [3]): 256 µg/mL (≈ 1700 µM)

SMILES: Cc1cc(O)c(C(C)C)cc1-c1ccccc1
MIC (Staphylococcus aureus [1]): 16 µg/mL (≈ 70.7 µM) | MIC (Staphylococcus aureus [2]): 8 µg/mL (≈ 35.3 µM) | MIC (Staphylococcus aureus [3]): 16 µg/mL (≈ 70.7 µM) | IC50 at 72 h [4]: 13.5 µg/mL (≈ 59.5 µM)

SMILES: Cc1cc(O)c(C(C)C)cc1-c1cccc(Cl)c1
MIC (Staphylococcus aureus [1]): 4 µg/mL (≈ 15.3 µM) | MIC (Staphylococcus aureus [2]): 8 µg/mL (≈ 30.7 µM) | MIC (Staphylococcus aureus [3]): 8 µg/mL (≈ 30.7 µM)

SMILES: Cc1cc(O)c(C(C)C)cc1Cl [CHLOROTHYMOL]
MIC (Staphylococcus aureus [1]): 64 µg/mL (≈ 347 µM) | MIC (Staphylococcus aureus [2]): 64 µg/mL (≈ 347 µM) | MIC (Staphylococcus aureus [3]): 64 µg/mL (≈ 347 µM)

SMILES: Cc1ccccc1-c1cc(C(C)C)c(O)cc1C
MIC (Staphylococcus aureus [1]): 8 µg/mL (≈ 33.3 µM) | MIC (Staphylococcus aureus [2]): 8 µg/mL (≈ 33.3 µM) | MIC (Staphylococcus aureus [3]): 16 µg/mL (≈ 66.6 µM)

SMILES: Cc1cc(O)c(C(C)C)cc1-c1ccccc1F
MIC (Staphylococcus aureus [1]): 8 µg/mL (≈ 32.7 µM) | MIC (Staphylococcus aureus [2]): 16 µg/mL (≈ 65.5 µM) | MIC (Staphylococcus aureus [3]): 16 µg/mL (≈ 65.5 µM)

MIC (Escherichia coli [5]): > 64 µg/mL | MIC (Escherichia coli [6]): 32 µg/mL | MIC (Pseudomonas aeruginosa [7]; read-out: MIC100): 64 µg/mL | MIC (Pseudomonas aeruginosa [8]; read-out: MIC100): > 64 µg/mL | MIC (Klebsiella pneumoniae [9]; read-out: MIC100): > 64 µg/mL | MIC (Klebsiella pneumoniae [10]; read-out: MIC100): > 64 µg/mL | MIC (Acinetobacter baumannii [11]; read-out: MIC100): > 64 µg/mL | MIC (Acinetobacter baumannii [12]; read-out: MIC100): > 64 µg/mL
SMILES: Cc1cc(OC(=O)CCCCCCCCCC[P+](c2ccccc2)(c2ccccc2)c2ccccc2)c(C(C)C)cc1-c1ccccc1.[Br-]
IC50 at 72 h [4]: 3.13 µg/mL

SMILES: Cc1cccc(-c2cc(C(C)C)c(O)cc2C)c1
MIC (Staphylococcus aureus [1]): 16 µg/mL (≈ 66.6 µM) | MIC (Staphylococcus aureus [2]): 8 µg/mL (≈ 33.3 µM) | MIC (Staphylococcus aureus [3]): 8 µg/mL (≈ 33.3 µM)

SMILES: Cc1cc(O)c(C(C)C)cc1-c1ccccc1C(F)(F)F
MIC (Staphylococcus aureus [1]): 8 µg/mL (≈ 27.2 µM) | MIC (Staphylococcus aureus [2]): 8 µg/mL (≈ 27.2 µM) | MIC (Staphylococcus aureus [3]): 16 µg/mL (≈ 54.4 µM)

SMILES: O=C(O)c1cn(C2CC2)c2cc(N3CCNCC3)c(F)cc2c1=O [CIPROFLOXACIN]
MIC (Staphylococcus aureus [1]): 2 µg/mL (≈ 6.04 µM) | MIC (Staphylococcus aureus [2]): 1 µg/mL (≈ 3.02 µM) | MIC (Staphylococcus aureus [3]): 1 µg/mL (≈ 3.02 µM) | MIC (Pseudomonas aeruginosa [7]; read-out: MIC): 1 µg/mL (≈ 3.02 µM) | MIC (Pseudomonas aeruginosa [8]; read-out: MIC): 1 µg/mL (≈ 3.02 µM) | MIC (Klebsiella pneumoniae [9]; read-out: MIC): 0.12 µg/mL (≈ 0.362 µM) | MIC (Klebsiella pneumoniae [10]; read-out: MIC): 0.06 µg/mL (≈ 0.181 µM) | MIC (Acinetobacter baumannii [11]; read-out: MIC): 0.5 µg/mL (≈ 1.51 µM) | MIC (Acinetobacter baumannii [12]; read-out: MIC): 1 µg/mL (≈ 3.02 µM) | Activity (Staphylococcus aureus [13]): Active | Activity (Staphylococcus aureus [14]): Active | Activity (Staphylococcus aureus [15]): Active

MIC (Escherichia coli [5]): 16 µg/mL | MIC (Escherichia coli [6]): 8 µg/mL | MIC (Pseudomonas aeruginosa [7]; read-out: MIC100): > 64 µg/mL | MIC (Pseudomonas aeruginosa [8]; read-out: MIC100): > 64 µg/mL | MIC (Klebsiella pneumoniae [9]; read-out: MIC100): 32 µg/mL | MIC (Klebsiella pneumoniae [10]; read-out: MIC100): 32 µg/mL | MIC (Acinetobacter baumannii [11]; read-out: MIC100): 16 µg/mL | MIC (Acinetobacter baumannii [12]; read-out: MIC100): 8 µg/mL
SMILES: Cc1cc(OC(=O)CCCC[P+](c2ccccc2)(c2ccccc2)c2ccccc2)c(C(C)C)cc1-c1ccccc1.[Br-]
IC50 at 72 h [4]: 8.31 µg/mL

MIC (Escherichia coli [5]): 4 µg/mL | MIC (Escherichia coli [6]): 64 µg/mL | MIC (Pseudomonas aeruginosa [7]; read-out: MIC100): 32 µg/mL | MIC (Pseudomonas aeruginosa [8]; read-out: MIC100): 32 µg/mL | MIC (Klebsiella pneumoniae [9]; read-out: MIC100): 32 µg/mL | MIC (Klebsiella pneumoniae [10]; read-out: MIC100): > 64 µg/mL | MIC (Acinetobacter baumannii [11]; read-out: MIC100): 32 µg/mL | MIC (Acinetobacter baumannii [12]; read-out: MIC100): 16 µg/mL
SMILES: Cc1cc(OC(=O)CCCCCCCCC[P+](c2ccccc2)(c2ccccc2)c2ccccc2)c(C(C)C)cc1-c1ccccc1.[Br-]
IC50 at 72 h [4]: 8.67 µg/mL

MIC (Escherichia coli [5]): 4 µg/mL | MIC (Escherichia coli [6]): 8 µg/mL | MIC (Pseudomonas aeruginosa [7]; read-out: MIC100): 32 µg/mL | MIC (Pseudomonas aeruginosa [8]; read-out: MIC100): 32 µg/mL | MIC (Klebsiella pneumoniae [9]; read-out: MIC100): 16 µg/mL | MIC (Klebsiella pneumoniae [10]; read-out: MIC100): 16 µg/mL | MIC (Acinetobacter baumannii [11]; read-out: MIC100): 8 µg/mL | MIC (Acinetobacter baumannii [12]; read-out: MIC100): 16 µg/mL
SMILES: Cc1cc(OC(=O)CCCCCCC[P+](c2ccccc2)(c2ccccc2)c2ccccc2)c(C(C)C)cc1-c1ccccc1.[Br-]
IC50 at 72 h [4]: 21.1 µg/mL

MIC (Escherichia coli [5]): 8 µg/mL | MIC (Escherichia coli [6]): 8 µg/mL | MIC (Pseudomonas aeruginosa [7]; read-out: MIC100): > 64 µg/mL | MIC (Pseudomonas aeruginosa [8]; read-out: MIC100): > 64 µg/mL | MIC (Klebsiella pneumoniae [9]; read-out: MIC100): 8 µg/mL | MIC (Klebsiella pneumoniae [10]; read-out: MIC100): 8 µg/mL | MIC (Acinetobacter baumannii [11]; read-out: MIC100): 8 µg/mL | MIC (Acinetobacter baumannii [12]; read-out: MIC100): 8 µg/mL
SMILES: Cc1cc(OC(=O)CCCCCC[P+](c2ccccc2)(c2ccccc2)c2ccccc2)c(C(C)C)cc1-c1ccccc1.[Br-]
IC50 at 72 h [4]: 18.8 µg/mL

SMILES: COc1cccc(-c2cc(C(C)C)c(O)cc2C)c1
MIC (Staphylococcus aureus [1]): 16 µg/mL (≈ 62.4 µM) | MIC (Staphylococcus aureus [2]): 16 µg/mL (≈ 62.4 µM) | MIC (Staphylococcus aureus [3]): 16 µg/mL (≈ 62.4 µM)

SMILES: Cc1cc(O)c(C(C)C)cc1Br
MIC (Staphylococcus aureus [1]): 64 µg/mL (≈ 279 µM) | MIC (Staphylococcus aureus [2]): 64 µg/mL (≈ 279 µM) | MIC (Staphylococcus aureus [3]): 32 µg/mL (≈ 140 µM)

SMILES: Cc1cc(O)c(C(C)C)cc1-c1ccc(O)cc1
MIC (Staphylococcus aureus [1]): > 64 µg/mL | MIC (Staphylococcus aureus [2]): > 64 µg/mL | MIC (Staphylococcus aureus [3]): > 64 µg/mL
